Measured values taken from the supplement of paper PMC13380429.

Legend:
Conditions in all cases: 72 h
[1] = test system: Caco-2; assay: drug sensitivity score (DSS) for viability; higher = more toxic; extreme values may be limits of the assay
[2] = test system: U2OS; assay: as above
[3] = test system: HepG2; assay: as above
[4] = test system: Calu-3; assay: as above
[5] = test system: Vero E6; assay: as above
[6] = test system: Caco-2; assay: relative viability EC50 (midpoint between 100% and the lowest measured viability); higher = less toxic
[7] = test system: U2OS; assay: as above
[8] = test system: HepG2; assay: as above
[9] = test system: Calu-3; assay: as above
[10] = test system: Vero E6; assay: as above
[11] = test system: Caco-2; assay: cell viability relative to DMSO; higher = less toxic
[12] = test system: U2OS; assay: as above
[13] = test system: HepG2; assay: as above
[14] = test system: Calu-3; assay: as above
[15] = test system: Vero E6; assay: as above

CCOC(=O)Nc1cc2c(c(N)n1)N=C(c1ccccc1)[C@H](C)N2 [mivobulin]
drug sensitivity score [1]: 23.8
drug sensitivity score [2]: 32.4
drug sensitivity score [3]: 31.1
drug sensitivity score [4]: 23.7
drug sensitivity score [5]: 38.5
relative viability EC50 [6]: 0.0055 µM
relative viability EC50 [7]: 0.005 µM
relative viability EC50 [8]: 0.0067 µM
relative viability EC50 [9]: 0.0083 µM
relative viability EC50 [10]: 0.0039 µM
cell viability ([11]; 1 nM): 103%
cell viability ([11]; 10 nM): 52.5%
cell viability ([11]; 100 nM): 48.7%
cell viability ([11]; 1000 nM): 47.3%
cell viability ([11]; 10000 nM): 42.2%
cell viability ([12]; 1 nM): 95.7%
cell viability ([12]; 10 nM): 38.6%
cell viability ([12]; 100 nM): 20.7%
cell viability ([12]; 1000 nM): 23.3%
cell viability ([12]; 10000 nM): 21.9%
cell viability ([13]; 1 nM): 99.6%
cell viability ([13]; 10 nM): 42.9%
cell viability ([13]; 100 nM): 24.1%
cell viability ([13]; 1000 nM): 21.5%
cell viability ([13]; 10000 nM): 22.9%
cell viability ([14]; 1 nM): 95.7%
cell viability ([14]; 10 nM): 65.2%
cell viability ([14]; 100 nM): 37.5%
cell viability ([14]; 1000 nM): 40.7%
cell viability ([14]; 10000 nM): 42.7%
cell viability ([15]; 1 nM): 94.3%
cell viability ([15]; 10 nM): 20.2%
cell viability ([15]; 100 nM): 8.2%
cell viability ([15]; 1000 nM): 9.9%
cell viability ([15]; 10000 nM): 13.5%

CN1C(=O)C(N2CCCCC2)S/C1=C\C(=O)O (stereo not given) [ozolinone]
drug sensitivity score [1]: 0
drug sensitivity score [2]: 0
drug sensitivity score [3]: 0
drug sensitivity score [4]: 0
drug sensitivity score [5]: 0
relative viability EC50 [6]: > 10 µM
relative viability EC50 [7]: > 10 µM
relative viability EC50 [8]: > 10 µM
relative viability EC50 [9]: > 10 µM
relative viability EC50 [10]: > 10 µM
cell viability ([11]; 1 nM): 113%
cell viability ([11]; 10 nM): 96.7%
cell viability ([11]; 100 nM): 92.1%
cell viability ([11]; 1000 nM): 105%
cell viability ([11]; 10000 nM): 114%
cell viability ([12]; 1 nM): 95.5%
cell viability ([12]; 10 nM): 97.5%
cell viability ([12]; 100 nM): 102%
cell viability ([12]; 1000 nM): 99.6%
cell viability ([12]; 10000 nM): 100%
cell viability ([13]; 1 nM): 89.5%
cell viability ([13]; 10 nM): 107%
cell viability ([13]; 100 nM): 104%
cell viability ([13]; 1000 nM): 87.1%
cell viability ([13]; 10000 nM): 105%
cell viability ([14]; 1 nM): 102%
cell viability ([14]; 10 nM): 93.9%
cell viability ([14]; 100 nM): 94.1%
cell viability ([14]; 1000 nM): 93.5%
cell viability ([14]; 10000 nM): 95%
cell viability ([15]; 1 nM): 97.1%
cell viability ([15]; 10 nM): 103%
cell viability ([15]; 100 nM): 97%
cell viability ([15]; 1000 nM): 102%
cell viability ([15]; 10000 nM): 117%

COc1cc(C(=S)N2CCOCC2)cc(OC)c1OC [sulmetozine]
drug sensitivity score [1]: 0
drug sensitivity score [2]: 0
drug sensitivity score [3]: 0
drug sensitivity score [4]: 0
drug sensitivity score [5]: 0
relative viability EC50 [6]: > 10 µM
relative viability EC50 [7]: > 10 µM
relative viability EC50 [8]: > 10 µM
relative viability EC50 [9]: > 10 µM
relative viability EC50 [10]: > 10 µM
cell viability ([11]; 1 nM): 90.8%
cell viability ([11]; 10 nM): 98%
cell viability ([11]; 100 nM): 90.6%
cell viability ([11]; 1000 nM): 91.6%
cell viability ([11]; 10000 nM): 103%
cell viability ([12]; 1 nM): 97.2%
cell viability ([12]; 10 nM): 103%
cell viability ([12]; 100 nM): 94.6%
cell viability ([12]; 1000 nM): 96.3%
cell viability ([12]; 10000 nM): 102%
cell viability ([13]; 1 nM): 95%
cell viability ([13]; 10 nM): 102%
cell viability ([13]; 100 nM): 98.6%
cell viability ([13]; 1000 nM): 111%
cell viability ([13]; 10000 nM): 108%
cell viability ([14]; 1 nM): 96.5%
cell viability ([14]; 10 nM): 99.4%
cell viability ([14]; 100 nM): 102%
cell viability ([14]; 1000 nM): 99.9%
cell viability ([14]; 10000 nM): 105%
cell viability ([15]; 1 nM): 103%
cell viability ([15]; 10 nM): 94.7%
cell viability ([15]; 100 nM): 105%
cell viability ([15]; 1000 nM): 97.7%
cell viability ([15]; 10000 nM): 113%

CCCCOc1cc(CC2CNC(=O)N2)ccc1OC (stereo not given) [Ro-20-1724]
drug sensitivity score [1]: 0
drug sensitivity score [2]: 0
drug sensitivity score [3]: 0.1
drug sensitivity score [4]: 0
drug sensitivity score [5]: 0
relative viability EC50 [6]: > 10 µM
relative viability EC50 [7]: > 10 µM
relative viability EC50 [8]: > 10 µM
relative viability EC50 [9]: > 10 µM
relative viability EC50 [10]: > 10 µM
cell viability ([11]; 1 nM): 97.3%
cell viability ([11]; 10 nM): 96.8%
cell viability ([11]; 100 nM): 102%
cell viability ([11]; 1000 nM): 103%
cell viability ([11]; 10000 nM): 110%
cell viability ([12]; 1 nM): 96.3%
cell viability ([12]; 10 nM): 102%
cell viability ([12]; 100 nM): 95.2%
cell viability ([12]; 1000 nM): 107%
cell viability ([12]; 10000 nM): 102%
cell viability ([13]; 1 nM): 101%
cell viability ([13]; 10 nM): 91.6%
cell viability ([13]; 100 nM): 105%
cell viability ([13]; 1000 nM): 91.1%
cell viability ([13]; 10000 nM): 89.5%
cell viability ([14]; 1 nM): 97.1%
cell viability ([14]; 10 nM): 105%
cell viability ([14]; 100 nM): 104%
cell viability ([14]; 1000 nM): 108%
cell viability ([14]; 10000 nM): 96.8%
cell viability ([15]; 1 nM): 95.4%
cell viability ([15]; 10 nM): 94.8%
cell viability ([15]; 100 nM): 101%
cell viability ([15]; 1000 nM): 95.1%
cell viability ([15]; 10000 nM): 99.1%

CCN1C(C)(C)CC(Oc2ccc(C(=O)Nc3ccc(NC(=O)Nc4cc(C(C)(C)C)on4)cc3)nc2)CC1(C)C [AC-710]
drug sensitivity score [1]: 0
drug sensitivity score [2]: 0
drug sensitivity score [3]: 0
drug sensitivity score [4]: 0.2
drug sensitivity score [5]: 0
relative viability EC50 [6]: > 10 µM
relative viability EC50 [7]: > 10 µM
relative viability EC50 [8]: > 10 µM
relative viability EC50 [9]: > 10 µM
relative viability EC50 [10]: > 10 µM
cell viability ([11]; 1 nM): 100%
cell viability ([11]; 10 nM): 89.4%
cell viability ([11]; 100 nM): 100%
cell viability ([11]; 1000 nM): 94.4%
cell viability ([11]; 10000 nM): 88.2%
cell viability ([12]; 1 nM): 98.9%
cell viability ([12]; 10 nM): 97%
cell viability ([12]; 100 nM): 98.9%
cell viability ([12]; 1000 nM): 99.9%
cell viability ([12]; 10000 nM): 94.3%
cell viability ([13]; 1 nM): 100%
cell viability ([13]; 10 nM): 97.7%
cell viability ([13]; 100 nM): 94.1%
cell viability ([13]; 1000 nM): 105%
cell viability ([13]; 10000 nM): 87.3%
cell viability ([14]; 1 nM): 108%
cell viability ([14]; 10 nM): 105%
cell viability ([14]; 100 nM): 97.4%
cell viability ([14]; 1000 nM): 89.4%
cell viability ([14]; 10000 nM): 94%
cell viability ([15]; 1 nM): 101%
cell viability ([15]; 10 nM): 106%
cell viability ([15]; 100 nM): 99.9%
cell viability ([15]; 1000 nM): 104%
cell viability ([15]; 10000 nM): 96.8%

O=c1c(-c2ccc(O)cc2)coc2c([C@@H]3O[C@H](CO)[C@@H](O)[C@H](O)[C@H]3O)c(O)ccc12 [kakonein]
drug sensitivity score [1]: 0
drug sensitivity score [2]: 0
drug sensitivity score [3]: 0
drug sensitivity score [4]: 0
drug sensitivity score [5]: 0
relative viability EC50 [6]: > 10 µM
relative viability EC50 [7]: > 10 µM
relative viability EC50 [8]: > 10 µM
relative viability EC50 [9]: > 10 µM
relative viability EC50 [10]: > 10 µM
cell viability ([11]; 1 nM): 122%
cell viability ([11]; 10 nM): 104%
cell viability ([11]; 100 nM): 108%
cell viability ([11]; 1000 nM): 106%
cell viability ([11]; 10000 nM): 96.3%
cell viability ([12]; 1 nM): 99.2%
cell viability ([12]; 10 nM): 95.1%
cell viability ([12]; 100 nM): 99.3%
cell viability ([12]; 1000 nM): 95.2%
cell viability ([12]; 10000 nM): 97.9%
cell viability ([13]; 1 nM): 95.7%
cell viability ([13]; 10 nM): 97.7%
cell viability ([13]; 100 nM): 84.6%
cell viability ([13]; 1000 nM): 99.6%
cell viability ([13]; 10000 nM): 93.5%
cell viability ([14]; 1 nM): 104%
cell viability ([14]; 10 nM): 99.3%
cell viability ([14]; 100 nM): 111%
cell viability ([14]; 1000 nM): 102%
cell viability ([14]; 10000 nM): 95.5%
cell viability ([15]; 1 nM): 98%
cell viability ([15]; 10 nM): 103%
cell viability ([15]; 100 nM): 99.1%
cell viability ([15]; 1000 nM): 95.3%
cell viability ([15]; 10000 nM): 91.8%

CCCc1c(OCCCCc2nnn[nH]2)ccc(C(C)=O)c1O [tomelukast]
drug sensitivity score [1]: 0
drug sensitivity score [2]: 0
drug sensitivity score [3]: 1.5
drug sensitivity score [4]: 0
drug sensitivity score [5]: 0
relative viability EC50 [6]: > 10 µM
relative viability EC50 [7]: > 10 µM
relative viability EC50 [8]: > 10 µM
relative viability EC50 [9]: > 10 µM
relative viability EC50 [10]: > 10 µM
cell viability ([11]; 1 nM): 88.9%
cell viability ([11]; 10 nM): 93.9%
cell viability ([11]; 100 nM): 97.8%
cell viability ([11]; 1000 nM): 105%
cell viability ([11]; 10000 nM): 97.6%
cell viability ([12]; 1 nM): 94.9%
cell viability ([12]; 10 nM): 103%
cell viability ([12]; 100 nM): 98.1%
cell viability ([12]; 1000 nM): 99.7%
cell viability ([12]; 10000 nM): 99.6%
cell viability ([13]; 1 nM): 95.6%
cell viability ([13]; 10 nM): 90.3%
cell viability ([13]; 100 nM): 94.5%
cell viability ([13]; 1000 nM): 82.9%
cell viability ([13]; 10000 nM): 84.8%
cell viability ([14]; 1 nM): 87.4%
cell viability ([14]; 10 nM): 105%
cell viability ([14]; 100 nM): 107%
cell viability ([14]; 1000 nM): 102%
cell viability ([14]; 10000 nM): 104%
cell viability ([15]; 1 nM): 94.5%
cell viability ([15]; 10 nM): 98.5%
cell viability ([15]; 100 nM): 107%
cell viability ([15]; 1000 nM): 96.6%
cell viability ([15]; 10000 nM): 106%
